Assay results from US20180186755A1, “LYSYL OXIDASE-LIKE 2 INHIBITORS AND USES THEREOF” (PharmAkea, Inc., priority 2015, published 2018).
Where a name gives a salt, the structure may show the parent alone.

Target: T1, human LOXL2 (Homo sapiens, UniProt Q9Y4K0)
T1 construct: expressed in transfected cells; 10-20x concentrated conditioned media used as the enzyme source
T1 sequence (Q9Y4K0 26-774): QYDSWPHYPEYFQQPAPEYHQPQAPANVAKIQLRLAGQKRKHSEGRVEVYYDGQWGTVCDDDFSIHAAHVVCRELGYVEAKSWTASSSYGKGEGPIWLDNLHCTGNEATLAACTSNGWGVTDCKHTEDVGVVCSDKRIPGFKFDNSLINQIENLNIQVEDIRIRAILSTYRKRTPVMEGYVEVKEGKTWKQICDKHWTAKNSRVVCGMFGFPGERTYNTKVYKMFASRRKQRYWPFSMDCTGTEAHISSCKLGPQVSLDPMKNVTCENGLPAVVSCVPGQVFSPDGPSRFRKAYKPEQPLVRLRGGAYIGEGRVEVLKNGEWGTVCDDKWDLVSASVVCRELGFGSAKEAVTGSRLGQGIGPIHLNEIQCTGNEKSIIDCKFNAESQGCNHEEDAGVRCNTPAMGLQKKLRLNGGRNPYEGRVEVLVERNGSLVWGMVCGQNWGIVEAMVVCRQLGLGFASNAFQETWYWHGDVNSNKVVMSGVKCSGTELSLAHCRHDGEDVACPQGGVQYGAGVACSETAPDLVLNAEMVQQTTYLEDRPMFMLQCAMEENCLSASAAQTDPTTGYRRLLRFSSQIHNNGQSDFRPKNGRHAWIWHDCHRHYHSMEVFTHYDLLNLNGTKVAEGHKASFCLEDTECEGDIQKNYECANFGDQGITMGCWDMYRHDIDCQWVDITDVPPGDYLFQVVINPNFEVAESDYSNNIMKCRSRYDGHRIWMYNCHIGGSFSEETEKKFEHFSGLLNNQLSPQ
Experiment: Human LOXL2 amine oxidase activity assay (Amplex Red fluorescence)
Format: biochemical
Conditions: concentrated conditioned media from CHO cells stably expressing human LOXL2; 2 h at 37° C. preincubation; DAP substrate
Experimental: Example B-1: Human LOXL2 Amine Oxidase Activity Assay
LOXL2 amine oxidase activity is evaluated by measuring Amplex Red fluorescence using 10-20× concentrated conditioned media from CHO cells stably expressing human LOXL2.
To assay for amine oxidase activity, 10 μL of the concentrated conditioned media is incubated with 2 μL of test compound in DMSO and 73 μL Assay Buffer (50 mM Borate Buffer, pH8) for 2 h at 37° C. After the 2 h incubation, 5 ul of 10 mM 1,5-Diaminopentane (DAP) diluted in Assay Buffer and 10 μl of Amplex Red Mix (8.5 μl Assay Buffer+0.5 μl of 10 mM Amplex Red+1 μl of 500 U/ml Horseradish Peroxidase) are added and the plate mixed and immediately placed on the FlexStaion for fluorescence measurements. Fluorescence is read in kinetic mode every 2 min for 1 hour at excitation=544 and emission=590. The amine oxidase activity is calculated from the slope of the linear portion of the curve.

COC(=O)c1cccc(Cn2ccc3c(Oc4cc(CN)ncn4)cccc32)c1 [Compound 1-27, Methyl 3-((4-((6-(aminomethyl)pyrimidin-4-yl)oxy)-1H-indol-1-yl)methyl)benzoate]
IC50: < 100 nM

CN(C)C(=O)c1cccc(COc2cc(CN)ncn2)c1 [Compound 1-33, 3-(((6-(Aminomethyl)pyrimidin-4-yl)oxy)methyl)-N,N-dimethylbenzamide]
IC50: < 100 nM

NCc1cc(Oc2cccc(C(=O)NCc3ccc(-c4ccc(F)cc4)cc3)c2)ncn1 [Compound 1-62, 3-((6-(Aminomethyl)pyrimidin-4-yl)oxy)-N-((4′-fluoro-[1,1′-biphenyl]-4-yl)methyl)benzamide]
IC50: < 100 nM

NCc1cc(Oc2cccc(Oc3ccccc3)c2)ncn1 [Compound 1-2, (6-(3-Phenoxyphenoxy)pyrimidin-4-yl)methanamine hydrochloride]
IC50: < 100 nM

NCc1cc(-n2ncc3c(CO)cccc32)ncn1 [Compound 1-61, (1-(6-(Aminomethyl)pyrimidin-4-yl)-1H-indazol-4-yl)methanol]
IC50: < 100 nM

NCc1cc(N2CCN(C(=O)Cc3ccccc3)CC2)ncn1 [Compound 1-106, 1-(4-(6-(Aminomethyl)pyrimidin-4-yl)piperazin-1-yl)-2-phenylethanone]
IC50: 100 to 1000 nM

NCc1cc(OCc2cccc(C(=O)N3CCN(c4ccccc4)CC3)c2)ncn1 [Compound 1-91, (3-(((6-(Aminomethyl)pyrimidin-4-yl)oxy)methyl)phenyl)(4-phenylpiperazin-1-yl)methanone]
IC50: < 100 nM

NCc1cc(Oc2cccc(C(=O)NCc3cc4cccnc4[nH]3)c2)ncn1 [Compound 1-67, N-((1H-Pyrrolo[2,3-b]pyridin-2-yl)methyl)-3-((6-(aminomethyl)pyrimidin-4-yl)oxy)benzamide]
IC50: < 100 nM

NCc1cc(Oc2ccc3[nH]ccc3c2)ncn1 [Compound 1-18, (6-((1H-Indol-5-yl)oxy)pyrimidin-4-yl)methanamine trifluoroacetate]
IC50: < 100 nM

NCc1cc(OCc2cccc(C(=O)NCCn3cccn3)c2)ncn1 [Compound 1-39, N-(2-(1H-Pyrazol-1-yl)ethyl)-3-(((6-(aminomethyl)pyrimidin-4-yl)oxy)methyl)benzamide]
IC50: < 100 nM

NCc1cc(Oc2cccc(C(=O)NCc3ccc4ccccc4n3)c2)ncn1 [Compound 1-63, 3-((6-(Aminomethyl)pyrimidin-4-yl)oxy)-N-(quinolin-2-ylmethyl)benzamide]
IC50: < 100 nM

C#C[C@@H](CC(=O)OC)NC(=O)c1cccc(Oc2cc(CN)ncn2)c1 [Compound 1-76, (R)-Methyl 3-(3-((6-(aminomethyl)pyrimidin-4-yl)oxy)benzamido)pent-4-ynoate]
IC50: < 100 nM

NCc1cc(-n2ccc3c(CO)cccc32)ncn1 [Compound 1-99, (1-(6-(Aminomethyl)pyrimidin-4-yl)-1H-indol-4-yl)methanol]
IC50: 100 to 1000 nM

NCc1cc(OCc2cccc(C(=O)Nc3ccccc3)c2)ncn1 [Compound 1-40, 3-(((6-(Aminomethyl)pyrimidin-4-yl)oxy)methyl)-N-phenylbenzamide]
IC50: < 100 nM

NCc1cc(Oc2cccc3c2ccn3Cc2ccccc2)ncn1 [Compound 1-26, (6-((1-Benzyl-1H-indol-4-yl)oxy)pyrimidin-4-yl)methanamine]
IC50: < 100 nM

NCc1cc(Oc2cccc(C(=O)NCCCC(=O)O)c2)ncn1 [Compound 1-8, 4-(3-((6-(Aminomethyl)pyrimidin-4-yl)oxy)benzamido)butanoic Acid Hydrochloride]
IC50: 100 to 1000 nM

Cn1c(CNC(=O)c2cccc(Oc3cc(CN)ncn3)c2)cc2ccccc21 [Compound 1-66, 3-((6-(Aminomethyl)pyrimidin-4-yl)oxy)-N-((1-methyl-1H-indol-2-yl)methyl)benzamide]
IC50: < 100 nM

CS(=O)(=O)CCN1C(=O)CCc2c(Oc3cc(CN)ncn3)cccc21 [Compound 1-47, 5-((6-(Aminomethyl)pyrimidin-4-yl)oxy)-1-(2-(methylsulfonyl)ethyl)-3,4-dihydroquinolin-2(1H)-one]
IC50: < 100 nM

NCc1cc(Oc2cccc(C(=O)N3CCc4cccnc4C3)c2)ncn1 [Compound 1-69, (3-((6-(Aminomethyl)pyrimidin-4-yl)oxy)phenyl)(5,6-dihydro-1,7-naphthyridin-7(8H)-yl)methanone]
IC50: < 100 nM

NCc1cc(OCc2cccc(C(=O)N3CCc4cccnc4C3)c2)ncn1 [Compound 1-88, (3-(((6-(Aminomethyl)pyrimidin-4-yl)oxy)methyl)phenyl)(5,6-dihydro-1,7-naphthyridin-7(8H)-yl)methanone]
IC50: < 100 nM

NCc1cc(Oc2cccc3c2ccn3C2COC2)ncn1 [Compound 1-49, (6-((1-(Oxetan-3-yl)-1H-indol-4-yl)oxy)pyrimidin-4-yl)methanamine]
IC50: 100 to 1000 nM

COc1ccc(Cn2ccc3cc(Oc4cc(CN)ncn4)ccc32)cn1 [Compound 1-29, (6-((1-((6-Methoxypyridin-3-yl)methyl)-1H-indol-5-yl)oxy)pyrimidin-4-yl)methanamine]
IC50: < 100 nM

CN(Cc1cccc(C(=O)Nc2ccccc2)c1)c1cc(CN)ncn1 [Compound 1-45, 3-(((6-(Aminomethyl)pyrimidin-4-yl)(methyl)amino)methyl)-N-phenylbenzamide]
IC50: 100 to 1000 nM

NCc1cc(Oc2ccc(F)cc2)ncn1 [Compound 1-1, (6-(4-Fluorophenoxy)pyrimidin-4-yl)methanamine trifluoroacetate]
IC50: < 100 nM

NCc1cc(OCc2cccc(C(=O)NCc3nc4ccccc4o3)c2)ncn1 [Compound 1-83, 3-(((6-(Aminomethyl)pyrimidin-4-yl)oxy)methyl)-N-(benzo[d]oxazol-2-ylmethyl)benzamide]
IC50: < 100 nM

NCc1cc(Oc2cccc(C(=O)NCc3cc4cc(F)ccc4[nH]3)c2)ncn1 [Compound 1-65, 3-((6-(Aminomethyl)pyrimidin-4-yl)oxy)-N-((5-fluoro-1H-indol-2-yl)methyl)benzamide]
IC50: < 100 nM

NCc1cc(OCc2cccc(C(=O)NCCn3cnnn3)c2)ncn1 [Compound 1-46, N-(2-(1H-Tetrazol-1-yl)ethyl)-3-(((6-(aminomethyl)pyrimidin-4-yl)oxy)methyl)benzamide]
IC50: < 100 nM

NCc1cc(NCc2cccc(C(=O)Nc3cccc(C(F)(F)F)c3)c2)ncn1 [Compound 1-96, 3-(((6-(Aminomethyl)pyrimidin-4-yl)amino)methyl)-N-(3-(trifluoromethyl)phenyl)benzamide]
IC50: < 100 nM

NCc1cc(Oc2cccc(C(=O)N3C[C@@H](O)[C@H](F)C3)c2)ncn1 (racemic) [Compound 1-11, Racemic-trans-(3-((6-(aminomethyl)pyrimidin-4-yl)oxy)phenyl)(3-fluoro-4-hydroxypyrrolidin-1-yl)methanone hydrochloride]
IC50: < 100 nM

NCc1cc(Oc2cccc(C(=O)NCCO)c2)ncn1 [Compound 1-9, 3-((6-(Aminomethyl)pyrimidin-4-yl)oxy)-N-(2-hydroxyethyl)benzamide hydrochloride]
IC50: < 100 nM

NCc1cc(Oc2cccc3c2ccn3CC(=O)O)ncn1 [Compound 1-22, 2-(4-((6-(Aminomethyl)pyrimidin-4-yl)oxy)-1H-indol-1-yl)acetic acid]
IC50: < 100 nM

NCc1cc(OCc2cccc(C(=O)N[C@@H](CO)c3ccccc3)c2)ncn1 [Compound 1-78, (R)-3-(((6-(Aminomethyl)pyrimidin-4-yl)oxy)methyl)-N-(2-hydroxy-1-phenylethyl)benzamide]
IC50: < 100 nM

NCc1cc(OCc2cccc(C(=O)Nc3cccc(C(F)(F)F)c3)c2)ncn1 [Compound 1-77, 3-(((6-(Aminomethyl)pyrimidin-4-yl)oxy)methyl)-N-(3-(trifluoromethyl)phenyl)benzamide]
IC50: < 100 nM

CN(C(=O)Cn1ccc2c(Oc3cc(CN)ncn3)cccc21)c1ccccc1 [Compound 1-24, 2-(4-((6-(Aminomethyl)pyrimidin-4-yl)oxy)-1H-indol-1-yl)-N-methyl-N-phenylacetamide]
IC50: < 100 nM

NCc1cc(NCc2cccc(C(=O)Nc3ccc(C(=O)O)cc3)c2)ncn1 [Compound 1-44, 4-(3-(((6-(Aminomethyl)pyrimidin-4-yl)amino)methyl)benzamido)benzoic acid]
IC50: 100 to 1000 nM

NCc1cc(Oc2cccc(C(=O)NCc3ccccc3)c2)ncn1 [Compound 1-56, 3-((6-(Aminomethyl)pyrimidin-4-yl)oxy)-N-benzylbenzamide]
IC50: < 100 nM
